How the values were obtained:
human α9α10 nAChR = human α9α10 nAChR (Homo sapiens, UniProt Q9GZZ6+Q9UGM1); assay: cell-based; format: cell-based
Sprague-Dawley rats [1] = details: rat, in vivo
Sprague-Dawley rats [2] = details: rat, in vivo; remark: listed apart in the source
Sprague-Dawley rats [3] = details: rat, in vivo; remark: listed apart in the source
Sprague-Dawley rats [4] = details: rat, in vivo; remark: listed apart in the source
Sprague Dawley rats = details: rat, in vivo

Sequence of human α9α10 nAChR (Q9UGM1 26-479 limits assumed): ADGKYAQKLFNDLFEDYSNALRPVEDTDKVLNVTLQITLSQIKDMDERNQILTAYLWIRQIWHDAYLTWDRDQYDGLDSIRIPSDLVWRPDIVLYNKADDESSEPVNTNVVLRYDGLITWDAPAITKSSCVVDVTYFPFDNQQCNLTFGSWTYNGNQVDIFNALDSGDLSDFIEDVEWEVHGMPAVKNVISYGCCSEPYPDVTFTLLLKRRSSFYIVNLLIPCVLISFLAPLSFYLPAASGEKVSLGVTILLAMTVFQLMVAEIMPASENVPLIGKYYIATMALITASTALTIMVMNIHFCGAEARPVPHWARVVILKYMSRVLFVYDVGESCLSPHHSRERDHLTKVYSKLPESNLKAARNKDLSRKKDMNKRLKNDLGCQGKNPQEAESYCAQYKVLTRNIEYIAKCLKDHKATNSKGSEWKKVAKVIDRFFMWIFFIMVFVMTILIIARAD
Sequence of human α9α10 nAChR (Q9GZZ6 25-450 limits assumed): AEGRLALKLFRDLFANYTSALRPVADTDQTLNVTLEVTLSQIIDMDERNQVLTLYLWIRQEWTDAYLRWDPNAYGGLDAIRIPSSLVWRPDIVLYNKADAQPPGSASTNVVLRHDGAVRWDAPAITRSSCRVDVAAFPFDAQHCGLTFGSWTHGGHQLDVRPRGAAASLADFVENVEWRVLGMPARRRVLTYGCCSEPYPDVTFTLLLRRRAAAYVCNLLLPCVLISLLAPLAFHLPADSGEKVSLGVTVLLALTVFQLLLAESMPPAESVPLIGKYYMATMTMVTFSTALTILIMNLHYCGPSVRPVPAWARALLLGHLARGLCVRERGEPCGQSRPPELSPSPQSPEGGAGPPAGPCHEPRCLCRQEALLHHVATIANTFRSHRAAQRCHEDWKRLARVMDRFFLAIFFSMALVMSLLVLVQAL

Compound	Fold improvement (human α9α10 nAChR)	IC50 (human α9α10 nAChR) [nM]	also measured
C[C@@H](O)[C@@H]1NC(=O)[C@@H]2CSSC[C@@H](C(=O)N[C@@H](CCCNC(=N)N)C(=O)N[C@@H](CCCNC(=N)N)C(=O)N[C@@H](Cc3ccc(O)cc3)C(=O)O)NC(=O)[C@H](CCC(N)=O)NC(=O)[C@H](Cc3ccc(O)c(I)c3)NC(=O)[C@H](CCCNC(N)=O)NC(=O)[C@H](CSSC[C@H](NC(=O)CN)C(=O)N2)NC(=O)[C@H](CCCNC(=N)N)NC(=O)[C@@H]2CCCN2C(=O)[C@H](CC(=O)O)NC1=O [Analog 6]	120 fold	4.11	
C[C@@H](O)[C@@H]1NC(=O)[C@@H]2CSSC[C@@H](C(=O)N[C@@H](Cc3ccc(O)cc3)C(=O)N[C@@H](Cc3ccc(O)cc3)C(=O)O)NC(=O)[C@H](CCC(N)=O)NC(=O)[C@H](Cc3ccc(O)c(I)c3)NC(=O)[C@H](CCCNC(N)=O)NC(=O)[C@H](CSSC[C@H](NC(=O)CN)C(=O)N2)NC(=O)[C@H](CCCNC(=N)N)NC(=O)[C@@H]2CCCN2C(=O)[C@H](CC(=O)O)NC1=O [Analog 9]	553 fold	0.893	
C[C@@H](O)[C@@H]1NC(=O)[C@@H]2CSSC[C@@H](C(=O)N[C@@H](CCCNC(=N)N)C(=O)N[C@@H](CCCNC(=N)N)C(=O)N[C@@H](CCCNC(=N)N)C(=O)O)NC(=O)[C@H](CCC(N)=O)NC(=O)[C@H](Cc3ccc(O)c(I)c3)NC(=O)[C@H](CCCNC(N)=O)NC(=O)[C@H](CSSC[C@H](NC(=O)CN)C(=O)N2)NC(=O)[C@H](CCCNC(=N)N)NC(=O)[C@@H]2CCCN2C(=O)[C@H](CC(=O)O)NC1=O [Analog 4]	109 fold	4.55	
C[C@@H](O)[C@@H]1NC(=O)[C@@H]2CSSC[C@@H](C(=O)N[C@@H](Cc3c[nH]c4ccccc34)C(=O)O)NC(=O)[C@H](CCC(N)=O)NC(=O)[C@H](Cc3ccc(O)c(I)c3)NC(=O)[C@H](CCCNC(N)=O)NC(=O)[C@H](CSSC[C@H](NC(=O)CN)C(=O)N2)NC(=O)[C@H](CCCNC(=N)N)NC(=O)[C@@H]2CCCN2C(=O)[C@H](CC(=O)O)NC1=O [Analog 8]	236 fold	2.09	
C[C@@H](O)[C@@H]1NC(=O)[C@@H]2CSSC[C@@H](C(=O)N[C@@H](Cc3ccc(O)cc3)C(=O)O)NC(=O)[C@H](CCC(N)=O)NC(=O)[C@H](Cc3ccc(O)c(I)c3)NC(=O)[C@H](CCCNC(=N)N)NC(=O)[C@H](CSSC[C@H](NC(=O)CN)C(=O)N2)NC(=O)[C@H](CCCNC(=N)N)NC(=O)[C@@H]2CCCN2C(=O)[C@H](CC(=O)O)NC1=O [Analog 11]	1,123 fold		
GCCTDPRCX2X3QCRRR [Analog 4]			potency on the human receptor after further optimization of Analog 2 (human α9α10 nAChR): improved potency
GCCTDPRCX2X3QCY [Analog 3]			OXA-induced pain threshold decrease (von Frey), day 7, 30 min (Sprague-Dawley rats [1]): reverted; activity on mechanical allodynia (von Frey), days 14 and 21 (Sprague-Dawley rats [1]): active; analgesic effect (von Frey), day 7, 24 h later (Sprague-Dawley rats [1]): not observed; potency on the human receptor after further optimization of Analog 2 (human α9α10 nAChR): improved potency; prevention of OXA-induced cold allodynia, day 7 (Sprague-Dawley rats [2]): able to prevent OXA-induced cold allodynia; prevention of OXA-induced cold allodynia, day 14 and 21 (Sprague-Dawley rats [2]): able to prevent OXA-induced cold allodynia; efficacy on mechanical hyperalgesia 24 h after injection (Sprague-Dawley rats [3]): still significant; pain threshold (mechanical hyperalgesia) 30 min after injection (Sprague-Dawley rats [3]): acutely increased pain threshold; prevention of OXA-induced mechanical hyperalgesia (Sprague-Dawley rats [3]): significantly prevented; analgesic effect in OXA chemotherapy induced neuropathic pain (Sprague-Dawley rats [4]): analgesic effect
C[C@@H](O)[C@@H]1NC(=O)[C@@H]2C[Se]SC[C@@H](C(=O)N[C@@H](CCCNC(=N)N)C(=O)O)NC(=O)[C@H](CCC(N)=O)NC(=O)[C@H](Cc3ccc(O)c(I)c3)NC(=O)[C@H](CCCNC(N)=O)NC(=O)[C@H](CS[Se]C[C@H](NC(=O)CN)C(=O)N2)NC(=O)[C@H](CCCNC(=N)N)NC(=O)[C@@H]2CCCN2C(=O)[C@H](CC(=O)O)NC1=O [SEQ ID NO:20, GX4X4TDPRCX2X3QCR]	5.7 fold		fold increase in potency on the human receptor (human α9α10 nAChR): 10 fold
C[C@@H](O)[C@@H]1NC(=O)[C@@H]2CSSC[C@@H](C(=O)N[C@@H](Cc3ccc(O)cc3)C(=O)N[C@@H](CCCNC(=N)N)C(=O)O)NC(=O)[C@H](CCC(N)=O)NC(=O)[C@H](Cc3ccc(O)c(I)c3)NC(=O)[C@H](CCCNC(N)=O)NC(=O)[C@H](CSSC[C@H](NC(=O)CN)C(=O)N2)NC(=O)[C@H](CCCNC(=N)N)NC(=O)[C@@H]2CCCN2C(=O)[C@H](CC(=O)O)NC1=O [Analog 10]	598 fold	0.826	
C[C@@H](O)[C@@H]1NC(=O)[C@@H]2CSSC[C@@H](C(=O)N[C@@H](Cc3ccccc3)C(=O)O)NC(=O)[C@H](CCC(N)=O)NC(=O)[C@H](Cc3ccc(O)c(I)c3)NC(=O)[C@H](CCCNC(N)=O)NC(=O)[C@H](CSSC[C@H](NC(=O)CN)C(=O)N2)NC(=O)[C@H](CCCNC(=N)N)NC(=O)[C@@H]2CCCN2C(=O)[C@H](CC(=O)O)NC1=O [Analog 7]	470 fold	1.05	
GCCTDPRCRX3QCY [Analog 11]			burn-induced thermal hyperalgesia (Hargraves method) (Sprague Dawley rats): significantly reduced
C[C@@H](O)[C@@H]1NC(=O)[C@@H]2CSSC[C@@H](C(=O)N[C@@H](Cc3ccc(O)cc3)C(=O)N[C@@H](CCCNC(=N)N)C(=O)N[C@@H](CCCNC(=N)N)C(=O)O)NC(=O)[C@H](CCC(N)=O)NC(=O)[C@H](Cc3ccc(O)c(I)c3)NC(=O)[C@H](CCCNC(N)=O)NC(=O)[C@H](CSSC[C@H](NC(=O)CN)C(=O)N2)NC(=O)[C@H](CCCNC(=N)N)NC(=O)[C@@H]2CCCN2C(=O)[C@H](CC(=O)O)NC1=O [Analog 5]	325 fold	1.52	

Reference: US10633417B2 (priority 2013, dated 2020)
